# From article PMC5218480 (PLoS ONE, 2017)
# Tested on: MV-4-11 cells
# Assay: Gene expression microarray analysis (Affymetrix PrimeView) and GSEA
# Format: cell-based, human
# Set-up: RFU PODN (11730768_x_at) / Fold change /veh PODN (11730768_x_at) / RFU LINC00158 (11744669_a_at) / Fold change /veh LINC00158 (11744669_a_at) / RFU DUSP10 (11751237_a_at) / Fold change /veh DUSP10 (11751237_a_at) / RFU ID3 (11757404_x_at) / Fold change /veh ID3 (11757404_x_at) / RFU PLEKHG5 (11737974_s_at) / Fold change /veh PLEKHG5 (11737974_s_at) / RFU LRRC4B (11730491_at) / Fold change /veh LRRC4B (11730491_at) / RFU GIMAP4 (11747438_a_at) / Fold change /veh GIMAP4 (11747438_a_at) / RFU KRT8 (11758183_x_at) / Fold change /veh KRT8 (11758183_x_at) / RFU CNN1 (11734310_a_at) / Fold change /veh CNN1 (11734310_a_at) / RFU VPS37D (11726825_at) / Fold change /veh VPS37D (11726825_at) / RFU C10orf10 (11716522_x_at) / Fold change /veh C10orf10 (11716522_x_at) / RFU KIR2DL2 /// KIR2DL4 /// KIR2DL5A /// KIR2DL5B /// KIR2DS1 /// KIR2DS2 /// KIR2DS3 /// KIR2DS4 /// KIR3DL3 /// KIR3DL3 /// KIR3DS1 (11738374_at) / Fold change /veh KIR2DL2 /// KIR2DL4 /// KIR2DL5A /// KIR2DL5B /// KIR2DS1 /// KIR2DS2 /// KIR2DS3 /// KIR2DS4 /// KIR3DL3 /// KIR3DL3 /// KIR3DS1 (11738374_at) / RFU C1QL1 (11718748_at) / Fold change /veh C1QL1 (11718748_at) / RFU TMPRSS4 (11747572_a_at) / Fold change /veh TMPRSS4 (11747572_a_at) / RFU HAMP (11756126_x_at) / Fold change /veh HAMP (11756126_x_at) / RFU RNFT2 (11725882_a_at) / Fold change /veh RNFT2 (11725882_a_at) / RFU NR4A2 (11747474_a_at) / Fold change /veh NR4A2 (11747474_a_at) / RFU ABCC12 (11746883_a_at) / Fold change /veh ABCC12 (11746883_a_at) / RFU TMEM136 (11760407_x_at) / Fold change /veh TMEM136 (11760407_x_at) / RFU CLDN22 /// WWC2 (11732394_at) / Fold change /veh CLDN22 /// WWC2 (11732394_at) / RFU HLA-DPB1 (11760878_x_at) / Fold change /veh HLA-DPB1 (11760878_x_at) / RFU SPINT1 (11716480_a_at) / Fold change /veh SPINT1 (11716480_a_at) / RFU GAP43 (11754022_s_at) / Fold change /veh GAP43 (11754022_s_at) / RFU A4GNT (11735810_at) / Fold change /veh A4GNT (11735810_at) / RFU PRB3 (11715151_x_at) / Fold change /veh PRB3 (11715151_x_at) / RFU TUBB4B (11761932_at) / Fold change /veh TUBB4B (11761932_at) / RFU CAPN14 (11732068_a_at) / Fold change /veh CAPN14 (11732068_a_at) / RFU TMCC2 (11721928_a_at) / Fold change /veh TMCC2 (11721928_a_at) / RFU IRGQ (11745062_a_at) / Fold change /veh IRGQ (11745062_a_at) / RFU FAM174B (11720279_a_at) / Fold change /veh FAM174B (11720279_a_at) / RFU TMPRSS4 (11748680_a_at) / Fold change /veh TMPRSS4 (11748680_a_at) / RFU FAM212B (11763350_a_at) / Fold change /veh FAM212B (11763350_a_at) / RFU PLEKHG5 (11743358_a_at) / Fold change /veh PLEKHG5 (11743358_a_at) / RFU ZSCAN30 (11745921_a_at) / Fold change /veh ZSCAN30 (11745921_a_at) / RFU CMKLR1 (11741424_a_at) / Fold change /veh CMKLR1 (11741424_a_at) / RFU LOC101060620 /// MAPK8IP1 (11723275_at) / Fold change /veh LOC101060620 /// MAPK8IP1 (11723275_at) / RFU SPTSSB (11747773_x_at) / Fold change /veh SPTSSB (11747773_x_at) / RFU PRSS12 (11739890_at) / Fold change /veh PRSS12 (11739890_at) / RFU BIN1 (11741810_x_at) / Fold change /veh BIN1 (11741810_x_at) / RFU WNT11 (11732464_a_at) / Fold change /veh WNT11 (11732464_a_at) / RFU C10orf10 (11716521_a_at) / Fold change /veh C10orf10 (11716521_a_at) / RFU C5orf56 (11738089_at) / Fold change /veh C5orf56 (11738089_at) / RFU CYB561 (11721691_x_at) / Fold change /veh CYB561 (11721691_x_at) / RFU ANKRD19P (11752326_a_at) / Fold change /veh ANKRD19P (11752326_a_at) / RFU OR2T12 /// OR2T33 /// OR2T8 (11738714_s_at) / Fold change /veh OR2T12 /// OR2T33 /// OR2T8 (11738714_s_at) / RFU VCAN (11748164_a_at) / Fold change /veh VCAN (11748164_a_at) / RFU JSRP1 (11732532_at) / Fold change /veh JSRP1 (11732532_at) / RFU KRTAP10-11 (11738290_x_at) / Fold change /veh KRTAP10-11 (11738290_x_at) / RFU MYO3A (11730013_a_at) / Fold change /veh MYO3A (11730013_a_at) / RFU EBF3 (11725865_a_at) / Fold change /veh EBF3 (11725865_a_at) / RFU CAMK2N1 (11719241_x_at) / Fold change /veh CAMK2N1 (11719241_x_at) / RFU C5orf56 (11738088_a_at) / Fold change /veh C5orf56 (11738088_a_at) / RFU OLFML3 (11715873_a_at) / Fold change /veh OLFML3 (11715873_a_at) / RFU LOC100653217 /// NTM (11731650_a_at) / Fold change /veh LOC100653217 /// NTM (11731650_a_at) / RFU MAPK11 (11762145_a_at) / Fold change /veh MAPK11 (11762145_a_at) / RFU FIZ1 (11724087_x_at) / Fold change /veh FIZ1 (11724087_x_at) / RFU OASL (11726364_x_at) / Fold change /veh OASL (11726364_x_at) / RFU SOX15 (11748057_x_at) / Fold change /veh SOX15 (11748057_x_at) / RFU CD79A (11719716_a_at) / Fold change /veh CD79A (11719716_a_at) / RFU HIST1H1D (11736915_at) / Fold change /veh HIST1H1D (11736915_at) / RFU CASKIN2 (11723855_a_at) / Fold change /veh CASKIN2 (11723855_a_at) / RFU LOC730098 (11760151_x_at) / Fold change /veh LOC730098 (11760151_x_at) / RFU OR4N2 (11742367_at) / Fold change /veh OR4N2 (11742367_at) / RFU PRRT2 (11749266_a_at) / Fold change /veh PRRT2 (11749266_a_at) / RFU SNX32 (11753110_a_at) / Fold change /veh SNX32 (11753110_a_at) / RFU CDHR5 (11726645_a_at) / Fold change /veh CDHR5 (11726645_a_at) / RFU RCAN1 (11760418_a_at) / Fold change /veh RCAN1 (11760418_a_at) / RFU FAM167A (11723789_a_at) / Fold change /veh FAM167A (11723789_a_at) / RFU FAM26E (11764081_at) / Fold change /veh FAM26E (11764081_at) / RFU ISYNA1 (11749810_s_at) / Fold change /veh ISYNA1 (11749810_s_at) / RFU ACY1 (11761880_at) / Fold change /veh ACY1 (11761880_at) / RFU 11764098_at / Fold change /veh 11764098_at / RFU SAMD14 (11745864_x_at) / Fold change /veh SAMD14 (11745864_x_at) / RFU NPB (11741838_a_at) / Fold change /veh NPB (11741838_a_at) / RFU TMPRSS6 (11731388_a_at) / Fold change /veh TMPRSS6 (11731388_a_at) / RFU KRTAP10-2 (11738614_at) / Fold change /veh KRTAP10-2 (11738614_at) / RFU ARHGAP8 /// PRR5-ARHGAP8 (11727945_x_at) / Fold change /veh ARHGAP8 /// PRR5-ARHGAP8 (11727945_x_at) / RFU KRTAP5-7 /// NADSYN1 (11734609_at) / Fold change /veh KRTAP5-7 /// NADSYN1 (11734609_at) / RFU RASL12 (11751679_a_at) / Fold change /veh RASL12 (11751679_a_at) / RFU CDKN2B (11736163_a_at) / Fold change /veh CDKN2B (11736163_a_at) / RFU PRF1 (11729649_at) / Fold change /veh PRF1 (11729649_at) / RFU, ZNF638 /// ZNF638-IT1 / Fold change vs veh, ZNF638 /// ZNF638-IT1 / RFU, PANK3 / Fold change vs veh, PANK3 / RFU, SH3YL1 / Fold change vs veh, SH3YL1 / RFU, ZEB2 / Fold change vs veh, ZEB2 / RFU, NRIP1 / Fold change vs veh, NRIP1 / RFU, PTTG1IP / Fold change vs veh, PTTG1IP / RFU, CAPN2 / Fold change vs veh, CAPN2 / RFU, MED14 / Fold change vs veh, MED14 / RFU, SNORA58 / Fold change vs veh, SNORA58 / RFU, C1orf63 / Fold change vs veh, C1orf63 / RFU, LRRFIP1 / Fold change vs veh, LRRFIP1 / RFU, NDUFAF7 / Fold change vs veh, NDUFAF7 / RFU, SLC12A2 / Fold change vs veh, SLC12A2 / RFU, IBTK / Fold change vs veh, IBTK / RFU, ESF1 / Fold change vs veh, ESF1 / Fold change vs veh, TMEM50B / RFU, TAOK1 / Fold change vs veh, TAOK1 / RFU, ACBD3 / Fold change vs veh, ACBD3 / RFU, TMA16 / Fold change vs veh, TMA16 / RFU, RWDD3 / Fold change vs veh, RWDD3 / RFU, BCAT1 / Fold change vs veh, BCAT1 / RFU, EDEM3 / Fold change vs veh, EDEM3 / RFU, TMEM33 / Fold change vs veh, TMEM33 / RFU, WDR75 / Fold change vs veh, WDR75 / RFU, AHCTF1 / Fold change vs veh, AHCTF1 / RFU, TFRC / Fold change vs veh, TFRC / RFU, ZDHHC17 / Fold change vs veh, ZDHHC17 / RFU, NOM1 / Fold change vs veh, NOM1 / RFU, ARL8B / Fold change vs veh, ARL8B / RFU, ZBTB11 / Fold change vs veh, ZBTB11 / RFU, TAMM41 / Fold change vs veh, TAMM41 / RFU, KIAA1704 /// LOC100996395 / Fold change vs veh, KIAA1704 /// LOC100996395 / RFU, ING1 / Fold change vs veh, ING1 / RFU, TRMT61B / Fold change vs veh, TRMT61B / RFU, FUBP3 / Fold change vs veh, FUBP3 / RFU, TP53 / Fold change vs veh, TP53 / RFU, TNKS2 / Fold change vs veh, TNKS2 / RFU, ZFP14 / Fold change vs veh, ZFP14 / RFU, ACTR2 / Fold change vs veh, ACTR2 / RFU, PPP3R1 / Fold change vs veh, PPP3R1 / RFU, PIK3R1 / Fold change vs veh, PIK3R1 / RFU, HNRNPA1 / Fold change vs veh, HNRNPA1 / RFU, RNF170 / Fold change vs veh, RNF170 / RFU, ZNF28 / Fold change vs veh, ZNF28 / RFU, RNGTT / Fold change vs veh, RNGTT / RFU, OGT / Fold change vs veh, OGT / RFU, BRD1 / Fold change vs veh, BRD1 / RFU, MARS / Fold change vs veh, MARS / RFU, ZNF655 / Fold change vs veh, ZNF655 / RFU, FAHD1 / Fold change vs veh, FAHD1 / RFU, BDP1 / Fold change vs veh, BDP1 / RFU, LRRCC1 / Fold change vs veh, LRRCC1 / RFU, ARID1A / Fold change vs veh, ARID1A / RFU, ZNF146 / Fold change vs veh, ZNF146 / RFU, ZNF330 / Fold change vs veh, ZNF330 / RFU, GPN3 / Fold change vs veh, GPN3 / RFU, C9orf123 / Fold change vs veh, C9orf123 / RFU, N4BP2L2 / Fold change vs veh, N4BP2L2 / RFU, ARFIP1 / Fold change vs veh, ARFIP1 / RFU, FAM179B / Fold change vs veh, FAM179B / RFU, BCL10 / Fold change vs veh, BCL10 / RFU, UHRF1BP1L / Fold change vs veh, UHRF1BP1L / RFU, BET1 / Fold change vs veh, BET1 / RFU, CNOT2 / Fold change vs veh, CNOT2 / RFU, ZNF268 / Fold change vs veh, ZNF268 / Fold change vs veh, ZNF507 / RFU, DGCR2 / Fold change vs veh, DGCR2 / RFU, WDSUB1 / Fold change vs veh, WDSUB1 / Fold change vs veh, HSP90B1 /// MIR3652 / RFU, ADSS / Fold change vs veh, ADSS / RFU, GK / Fold change vs veh, GK / RFU, ZNF148 / Fold change vs veh, ZNF148 / RFU, TAF9 / Fold change vs veh, TAF9 / RFU, SLC1A5 / Fold change vs veh, SLC1A5 / RFU, SLMO2 / Fold change vs veh, SLMO2 / RFU, ABCC4 / Fold change vs veh, ABCC4 / RFU, LOC101060439 /// RAP1B / Fold change vs veh, LOC101060439 /// RAP1B / RFU, RFX7 / Fold change vs veh, RFX7 / RFU, GTPBP10 / Fold change vs veh, GTPBP10 / RFU, CNEP1R1 / Fold change vs veh, CNEP1R1 / RFU, BIVM-ERCC5 /// ERCC5 / Fold change vs veh, BIVM-ERCC5 /// ERCC5 / RFU, ILF3 / Fold change vs veh, ILF3 / RFU 11762660_at / Fold change /veh 11762660_at / RFU VCAN (11757783_s_at) / Fold change /veh VCAN (11757783_s_at) / RFU DDX43 (11728927_at) / Fold change /veh DDX43 (11728927_at) / RFU KRT8 (11758188_x_at) / Fold change /veh KRT8 (11758188_x_at) / RFU NKD1 (11759106_at) / Fold change /veh NKD1 (11759106_at) / RFU SRD5A1 (11742802_a_at) / Fold change /veh SRD5A1 (11742802_a_at) / RFU TPSAB1 /// TPSB2 (11721975_s_at) / Fold change /veh TPSAB1 /// TPSB2 (11721975_s_at) / RFU GSTM3 (11746129_a_at) / Fold change /veh GSTM3 (11746129_a_at) / RFU IL23R (11737362_x_at) / Fold change /veh IL23R (11737362_x_at) / RFU TMEM51 (11727254_a_at) / Fold change /veh TMEM51 (11727254_a_at) / RFU PIWIL2 (11732686_x_at) / Fold change /veh PIWIL2 (11732686_x_at) / RFU ORM1 (11744905_x_at) / Fold change /veh ORM1 (11744905_x_at) / RFU CCDC152 (11743942_at) / Fold change /veh CCDC152 (11743942_at) / RFU ECM1 (11717891_a_at) / Fold change /veh ECM1 (11717891_a_at) / RFU IL23R (11748794_a_at) / Fold change /veh IL23R (11748794_a_at) / RFU TNFAIP8L3 (11732012_x_at) / Fold change /veh TNFAIP8L3 (11732012_x_at) / RFU MBOAT4 (11741988_at) / Fold change /veh MBOAT4 (11741988_at) / RFU 11764193_at / Fold change /veh 11764193_at / RFU TMEM53 (11763286_at) / Fold change /veh TMEM53 (11763286_at) / RFU MAGEB2 (11727129_at) / Fold change /veh MAGEB2 (11727129_at) / RFU TMEM200A (11744735_a_at) / Fold change /veh TMEM200A (11744735_a_at) / RFU CCDC152 (11751479_a_at) / Fold change /veh CCDC152 (11751479_a_at) / RFU FAM211A (11726209_a_at) / Fold change /veh FAM211A (11726209_a_at) / RFU RGS16 (11746705_a_at) / Fold change /veh RGS16 (11746705_a_at) / RFU VCAN (11755009_s_at) / Fold change /veh VCAN (11755009_s_at) / RFU RHOB (11743442_s_at) / Fold change /veh RHOB (11743442_s_at) / RFU RGS16 (11720943_a_at) / Fold change /veh RGS16 (11720943_a_at) / RFU RGS16 (11720944_at) / Fold change /veh RGS16 (11720944_at) / RFU, VPS4B / Fold change vs veh, VPS4B / RFU, CREB1 / Fold change vs veh, CREB1 / RFU, DNAJC13 / Fold change vs veh, DNAJC13 / RFU, GNAQ / Fold change vs veh, GNAQ / RFU, CDK5R1 / Fold change vs veh, CDK5R1 / RFU, ZRANB3 / Fold change vs veh, ZRANB3 / RFU, CUL4A / Fold change vs veh, CUL4A / RFU, CCNY / Fold change vs veh, CCNY / RFU, UFL1 / Fold change vs veh, UFL1 / RFU, COG3 / Fold change vs veh, COG3 / RFU, DIAPH2 / Fold change vs veh, DIAPH2 / RFU, SKA2 / Fold change vs veh, SKA2 / RFU, AFF3 / Fold change vs veh, AFF3 / RFU, LMF1 / Fold change vs veh, LMF1 / RFU, IPO11 / Fold change vs veh, IPO11 / RFU, DFFB / Fold change vs veh, DFFB / RFU, FOXP1 / Fold change vs veh, FOXP1 / RFU, CARD8 / Fold change vs veh, CARD8 / RFU, STRN3 / Fold change vs veh, STRN3 / RFU, ADK / Fold change vs veh, ADK / RFU, RASSF2 / Fold change vs veh, RASSF2 / RFU, WIPF1 / Fold change vs veh, WIPF1 / RFU, LARP1B / Fold change vs veh, LARP1B / RFU, RASA1 / Fold change vs veh, RASA1 / RFU, RB1 / Fold change vs veh, RB1 / RFU, PPFIA1 / Fold change vs veh, PPFIA1 / RFU, MAT2A / Fold change vs veh, MAT2A / RFU, CCT5 / Fold change vs veh, CCT5 / RFU, WDR92 / Fold change vs veh, WDR92 / RFU, CUX1 / Fold change vs veh, CUX1 / RFU, TTC7A / Fold change vs veh, TTC7A / RFU, TMEM135 / Fold change vs veh, TMEM135 / RFU, DEPTOR / Fold change vs veh, DEPTOR / RFU, CPM / Fold change vs veh, CPM / RFU, DNAJB6 / Fold change vs veh, DNAJB6 / RFU, CACNA2D3 / Fold change vs veh, CACNA2D3 / RFU, DTX4 / Fold change vs veh, DTX4 / RFU, TFCP2 / Fold change vs veh, TFCP2 / RFU, GMCL1 /// GMCL1P1 / Fold change vs veh, GMCL1 /// GMCL1P1 / RFU, AEBP2 / Fold change vs veh, AEBP2 / RFU, SNHG1 /// SNORD22 /// SNORD25 /// SNORD26 /// SNORD27 /// SNORD28 /// SNORD29 /// SNORD31 / Fold change vs veh, SNHG1 /// SNORD22 /// SNORD25 /// SNORD26 /// SNORD27 /// SNORD28 /// SNORD29 /// SNORD31 / Fold change (Aza/veh), C12orf56 (ProbeSet 11735607_a_at) / Fold change (ACY-1035/veh), C12orf56 (ProbeSet 11735607_a_at) / Fold change (Aza/veh), FGFR1OP (ProbeSet 11751329_s_at) / Fold change (ACY-1035/veh), FGFR1OP (ProbeSet 11751329_s_at) / Fold change (Aza/veh), VPS36 (ProbeSet 11739960_a_at) / Fold change (ACY-1035/veh), VPS36 (ProbeSet 11739960_a_at) / RFU SYPL1 (11715823_x_at) / Fold change /veh SYPL1 (11715823_x_at) / RFU IGFBP7 (11715501_s_at) / Fold change /veh IGFBP7 (11715501_s_at) / RFU REEP3 (11722064_at) / Fold change /veh REEP3 (11722064_at) / RFU IGLL1 (11728026_x_at) / Fold change /veh IGLL1 (11728026_x_at): dose or concentration left out as unconfirmed
# Settings: MV-4-11 cells, 48 hours
smiles,measurement,value
Nc1ncn([C@@H]2O[C@H](CO)[C@@H](O)[C@H]2O)c(=O)n1 [azacitidine],RFU PRF1 (11729649_at),19.15 RFU
